Test results from patent US20260083122A1, “METHOD AND AGENT FOR INACTIVATING BACTERIA OR VIRUSES, AND ANTIVIRAL BASE MATERIAL USING SAME” (NISSAN MOTOR CO., LTD., priority 2022, published 2026).
Where two headings read alike, the source gives them in different places.

What was measured:
[1] = Standard redox potential by cyclic voltammetry; format: physicochemical; conditions: reference electrode Ag/Ag^+, sweep rate 50 mV/s
Experimental: The standard redox potential is measured by cyclic voltammetry (CV) under a temperature condition of 25° C. At this time, the measurement is performed by a three-electrode method using a glassy carbon electrode (inner diameter: 3 mm) as a working electrode, a reference electrode (Ag/Ag^+), and a counter electrode (platinum wire), and the sweep rate of the potential is 50 mV/s. It is noted that the hydroxyamine forms of the compounds of the present invention are generally unstable and rapidly oxidized into nitroxyl radical forms. Thus, the value of the standard redox potential measured by the above method is the value between the nitroxyl radical form and the oxoammonium form.
In the cyclic voltammogram shown in FIG. 1, the cyclic voltammogram was stably maintained even after repeating 100 or more cycles of measurement, and thus it is observed that the compound of the present aspect has very high durability as an oxidizing agent.

[2] = tested on: feline coronavirus (FCov (VR-989)); format: cell-based; conditions: FCoV dilution series incubated with compound at room temperature for 2 hours; CRFK cells, 2 days culture
[3] = molecular target: T1, S-RBD-His(WT) (SARS-CoV-2 Spike Protein (RBD)) (Severe acute respiratory syndrome coronavirus 2, UniProt P0DTC2)
[4] = tested on: feline coronavirus (FCov (VR-989)); assay: Antiviral effect of AZADO (CPE method; incubation at 37° C.); format: cell-based
[5] = tested on: feline coronavirus (FCov (VR-989)); format: cell-based; conditions: for Positive rate (CPE) / Number of wells when CPE is positive: 3 days culture
[6] = tested on: feline coronavirus (FCov (VR-989)); assay: Cell viability by WST-8 method in the 25° C. incubation experiment; format: cell-based; conditions: cells cultured for 3 days after sample addition and medium replacement; virus alone about 50%
[7] = molecular target: T2, ovalbumin (OVA) (Gallus gallus, UniProt P01012); assay: Degradation activity on ovalbumin (electrophoresis, CBB staining); format: biochemical; conditions: room temperature for 24 hours
T2 sequence (P01012 1-386): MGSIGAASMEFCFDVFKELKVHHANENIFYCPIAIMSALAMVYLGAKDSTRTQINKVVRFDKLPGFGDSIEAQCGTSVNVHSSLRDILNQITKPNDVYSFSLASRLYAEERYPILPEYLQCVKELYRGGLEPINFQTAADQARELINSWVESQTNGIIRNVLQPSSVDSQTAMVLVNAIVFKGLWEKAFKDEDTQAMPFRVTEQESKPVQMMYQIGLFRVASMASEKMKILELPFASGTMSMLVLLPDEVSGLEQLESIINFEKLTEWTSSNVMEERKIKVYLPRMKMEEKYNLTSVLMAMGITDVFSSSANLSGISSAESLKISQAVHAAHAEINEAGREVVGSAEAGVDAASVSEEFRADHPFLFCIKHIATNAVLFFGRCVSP

[8] = tested on: Escherichia coli (DH5a strain; AMP+); assay: Measurement of minimum inhibitory concentration (MIC) against Escherichia coli (colony count); format: cell-based; conditions: for CFU relative value: Comparative Example (0 mM) is 100
Experimental: First, Escherichia coli (DH5a strain; AMP+) was cultured with shaking in LB medium for 20 hours, and the obtained culture solution was used as an Escherichia coli stock solution. Then, the Escherichia coli stock solution was diluted 1000 times with PBS to obtain a diluted solution. In addition, this diluted solution was used as a comparative example.
On the other hand, AZADO^+NO3^− was added to the diluted solution obtained above to have a final concentration of 1 μM, 10 μM, 100 μM, 1 mM, or 10 mM, respectively, and the obtained mixture was allowed to stand at room temperature for 15 minutes. Thereafter, for the purpose of deactivating AZADO^+NO3^−, the diluted solution was further diluted 10 times using LB medium as a reaction stop solution. Finally, 25 μL of the reaction solution obtained in this manner was applied to LB agar medium, and cultured at 37° C. for 1 day. Then, the number of colonies on the agar medium after culture was counted, and the colony forming unit (CFU/mL) per mL was calculated. In addition, the “CFU relative value” described in Table 3 is a relative value when the value of the colony forming unit of Comparative Example is 100.

[9] = molecular target: T1, S-RBD-His(WT) (SARS-CoV-2 Spike Protein (RBD)); remark: listed apart in the source
[10] = tested on: Escherichia coli ATCC 43895, serotype 0157:H7
[11] = tested on: Staphylococcus aureus subsp. aureus NBRC 12732
[12] = tested on: Penicillium citrinum (NBRC 6352)

Question: Which “standard redox potential (E^0@25° C.) between the nitroxyl radical form and the oxoammonium form” value (“standard redox potential” for short) [1] does the source give for CC1(C)CCCC(C)(C)N1[O] [TEMPO, 2,2,6,6-tetramethylpiperidine-N-oxyl] here?
Answer: 294 mV

Question: For 1,3-dimethyl AZADO, which “standard redox potential” value [1] is on record?
Answer: 136 mV

Question: With O=[N+]([O-])[O-].[Ag+] [silver nitrate, reference compound] as the compound, how does the “cell viability (WST-8 method)” value [2] read?
Answer: such a phenomenon was not observed

Question: Which “activity compared among the compounds (peak shift, MFI)” value [3] does the source give for F[B-](F)(F)F.O=[N+]1C2CC3CC(C2)CC1C3 [AZADO^+BF4^−] here?
Answer: almost equally strong

Question: What about the “antiviral activity (MFI) on extended treatment time” value [3] of the same compound?
Answer: showed higher antiviral activity

Question: With O=[N+]([O-])[O-].O=[N+]1C2CC3CC(C2)CC1C3 [AZADO-Oxo] as the compound, how does the “cell viability (WST-8 method)” value [2] read?
Answer: recovery of cell viability decreased by virus addition was observed

Question: What about the logTCID50 ([4]; AZADO-Oxo 2 mM added, 37° C. 2 hours (no AZADO-Oxo: 5.2)) of the same compound?
Answer: 2.4

Question: What about the TCID50 ([4]; AZADO-Oxo 2 mM added, 37° C. 2 hours (no AZADO-Oxo: 142262)) of the same compound?
Answer: 253

Question: And the “viral load reduced to (fraction)” value ([4]; AZADO-Oxo 2 mM, 37° C. 2 hours)?
Answer: about 1/1000

Question: What about the “Δ log TCID50” value ([4]; AZADO-Oxo 2 mM, 37° C. 2 hours, 5.2-2.4) of the same compound?
Answer: 2.8

Question: What about the “Positive rate (CPE)” value ([4]; AZADO-Oxo 2 mM, 37° C. 2 hours, viral load 10^−1) of the same compound?
Answer: 0%

Question: And the “Number of wells when CPE is positive” value ([4]; AZADO-Oxo 2 mM, 37° C. 2 hours, viral load 10^−1, 8 wells)?
Answer: 0

Question: And the “Positive rate (CPE)” value ([4]; AZADO-Oxo 2 mM, 37° C. 2 hours, viral load 10^−2)?
Answer: 0%

Question: And the “Number of wells when CPE is positive” value ([4]; AZADO-Oxo 2 mM, 37° C. 2 hours, viral load 10^−2, 8 wells)?
Answer: 0

Question: What about the “Positive rate (CPE)” value ([4]; AZADO-Oxo 2 mM, 37° C. 2 hours, viral load 10^−3) of the same compound?
Answer: 0%

Question: And the “Number of wells when CPE is positive” value ([4]; AZADO-Oxo 2 mM, 37° C. 2 hours, viral load 10^−3, 8 wells)?
Answer: 0

Question: And the “Positive rate (CPE)” value ([4]; AZADO-Oxo 2 mM, 37° C. 2 hours, viral load 10^−4)?
Answer: 0%

Question: What about the “Number of wells when CPE is positive” value ([4]; AZADO-Oxo 2 mM, 37° C. 2 hours, viral load 10^−4, 8 wells) of the same compound?
Answer: 0

Question: And the “Positive rate (CPE)” value ([4]; AZADO-Oxo 2 mM, 37° C. 2 hours, viral load 10^−5)?
Answer: 0%

Question: And the “Number of wells when CPE is positive” value ([4]; AZADO-Oxo 2 mM, 37° C. 2 hours, viral load 10^−5, 7 wells)?
Answer: 0

Question: What about the “Positive rate (CPE)” value ([4]; AZADO-Oxo 2 mM, 37° C. 2 hours, viral load (relative value) 1) of the same compound?
Answer: 0%

Question: What about the “Number of wells when CPE is positive” value ([4]; AZADO-Oxo 2 mM, 37° C. 2 hours, viral load (relative value) 1, 7 wells) of the same compound?
Answer: 0

Question: What about the “change of cell form to a round shape by virus (microscope)” value ([5]; 48 hours after the addition of the sample solution, 25° C. incubation) of the same compound?
Answer: this form change is suppressed

Question: What about the logTCID50 ([5]; AZADO-Oxo added, 25° C. incubation (no AZADO-Oxo: 5.2)) of the same compound?
Answer: 2.4

Question: And the TCID50 ([5]; AZADO-Oxo added, 25° C. incubation (no AZADO-Oxo: 142262))?
Answer: 253

Question: And the “Positive rate (CPE)” value ([5]; AZADO-Oxo added, 25° C. incubation, viral load 10^−1)?
Answer: 0%

Question: What about the “Number of wells when CPE is positive” value ([5]; AZADO-Oxo added, 25° C. incubation, viral load 10^−1, 8 wells) of the same compound?
Answer: 0

Question: And the “Positive rate (CPE)” value ([5]; AZADO-Oxo added, 25° C. incubation, viral load 10^−2)?
Answer: 0%

Question: What about the “Number of wells when CPE is positive” value ([5]; AZADO-Oxo added, 25° C. incubation, viral load 10^−2, 8 wells) of the same compound?
Answer: 0

Question: What about the “Positive rate (CPE)” value ([5]; AZADO-Oxo added, 25° C. incubation, viral load 10^−3) of the same compound?
Answer: 0%

Question: What about the “Number of wells when CPE is positive” value ([5]; AZADO-Oxo added, 25° C. incubation, viral load 10^−3, 8 wells) of the same compound?
Answer: 0

Question: What about the “Positive rate (CPE)” value ([5]; AZADO-Oxo added, 25° C. incubation, viral load 10^−4) of the same compound?
Answer: 0%

Question: What about the “Number of wells when CPE is positive” value ([5]; AZADO-Oxo added, 25° C. incubation, viral load 10^−4, 8 wells) of the same compound?
Answer: 0

Question: What about the “Positive rate (CPE)” value ([5]; AZADO-Oxo added, 25° C. incubation, viral load 10^−5) of the same compound?
Answer: 0%

Question: What about the “Number of wells when CPE is positive” value ([5]; AZADO-Oxo added, 25° C. incubation, viral load 10^−5, 7 wells) of the same compound?
Answer: 0

Question: What about the “Positive rate (CPE)” value ([5]; AZADO-Oxo added, 25° C. incubation, viral load (relative value) 1) of the same compound?
Answer: 0%

Question: What about the “Number of wells when CPE is positive” value ([5]; AZADO-Oxo added, 25° C. incubation, viral load (relative value) 1, 7 wells) of the same compound?
Answer: 0

Question: What about the “cell viability (WST-8 method)” value [6] of the same compound?
Answer: recovered the cell viability to the same level as the blank

Question: What about the “band of OVA in supernatant (CBB staining)” value ([7]; 1 mg catalyst support or 3 μL of 100 mM AZADO-Oxo) of the same compound?
Answer: almost eliminated

Question: And the “band of OVA in supernatant (CBB staining), unsupported AZADO” value ([7]; 2.5 μL of 100 mM AZADO-Oxo, with or without 2.5 μL of 100 mM cocatalyst)?
Answer: elimination of a band of OVA (protein degradation activity) was confirmed

Question: And the “final concentration at which a remarkable inactivation effect was observed” value ([8]; Escherichia coli, 15 minutes contact)?
Answer: ≥ 100 PM

Question: And the colony forming unit ([8]; final concentration 0.001 mM (0 mM: 1.21 × 10^8))?
Answer: 1.28 × 10^8 CFU/mL

Question: What about the CFU relative value ([8]; final concentration 0.001 mM) of the same compound?
Answer: 105

Question: And the Number of colonies ([8]; final concentration 0.001 mM, room temperature 15 minutes (0 mM: 303))?
Answer: 319

Question: What about the colony forming unit ([8]; final concentration 0.01 mM) of the same compound?
Answer: 1.25 × 10^8 CFU/mL

Question: And the CFU relative value ([8]; final concentration 0.01 mM)?
Answer: 103

Question: And the Number of colonies ([8]; final concentration 0.01 mM, room temperature 15 minutes)?
Answer: 313

Question: What about the colony forming unit ([8]; final concentration 0.1 mM) of the same compound?
Answer: 6.04 × 10^7 CFU/mL

Question: What about the CFU relative value ([8]; final concentration 0.1 mM) of the same compound?
Answer: 50

Question: What about the Number of colonies ([8]; final concentration 0.1 mM, room temperature 15 minutes) of the same compound?
Answer: 151

Question: What about the colony forming unit ([8]; final concentration 1 mM) of the same compound?
Answer: 0 CFU/mL

Question: What about the sterilization effect ([8]; final concentration 1 mM or more) of the same compound?
Answer: ≥ 99%

Question: And the CFU relative value ([8]; final concentration 1 mM)?
Answer: 0

Question: What about the Number of colonies ([8]; final concentration 1 mM, room temperature 15 minutes) of the same compound?
Answer: 0

Question: And the colony forming unit ([8]; final concentration 10 mM)?
Answer: 0 CFU/mL

Question: What about the CFU relative value ([8]; final concentration 10 mM) of the same compound?
Answer: 0

Question: What about the Number of colonies ([8]; final concentration 10 mM, room temperature 15 minutes) of the same compound?
Answer: 0

Question: And the “shift of fluorescence peak (binding amount between spike protein and ACE2)” value [9]?
Answer: shifted to the left depending on the amount of AZADO-Oxo added

Question: With CC12CC3CC(CC(C3)N1[O])C2 [1-methyl AZADO] as the compound, how does the “standard redox potential” value [1] read?
Answer: 186 mV

Question: For [O]N1C2CC3CC(C2)CC1C3 [AZADO, 2-azaadamantane-N-oxyl], which “standard redox potential” value [1] is on record?
Answer: 236 mV

Question: Which results are given for CC(=O)NC1CC(C)(C)[N+](=O)C(C)(C)C1.F[B-](F)(F)F [4-AcNH-TEMPO^+BF4^−]?
Answer: activity compared among the compounds (peak shift, MFI) [3]: almost equally strong; antiviral activity (MFI) on extended treatment time [3]: showed higher antiviral activity

Question: Which viable cell ratio [10] does the source give for copper(II) nitrate here?
Answer: did not decrease to 0%

Question: And the viable cell ratio [11]?
Answer: did not decrease after 5 minutes from the addition

Question: What about the viable cell ratio [12] of the same compound?
Answer: started to increase after 5 minutes from the addition
